The numbers were not newly measured in patent US7067315B2, “Identification of anti-protozoal agents” (President and Fellows of Harvard College, priority 2001, dated 2006), which cites them from elsewhere.

For the data set, the system named is Apicomplexan parasites. To be noted: several Apicomplexan parasites; by net actin filament depolymerization.

`C=C1[C@@H](C)[C@H]2[C@H](Cc3ccccc3)NC(=O)[C@]23[C@H](OC(C)=O)/C=C/[C@@](C)(O)C(=O)[C@@H](C)C/C=C/[C@H]3[C@@H]1O` [cytochalsin D]: the “inhibition of parasite motility and invasion” value is “inhibits parasite motility and invasion”.
